Measurements published in patent publication US11078228B2, “Ectonucleotidase inhibitors and methods of use thereof” (Calithera Biosciences, Inc., priority 2018, dated 2021).

Each compound was assayed against recombinant CD73 (Homo sapiens (Human), UniProt P21589) (assay: Assay 1: Inhibition of the CD73 enzyme in vitro (0.5 nM CD73, 30 min room temperature, Malachite Green)). Conditions: 0.5 nM CD73, 30 minutes at room temperature.
Format: biochemical
Description: For measurements of soluble CD73 enzyme activity, recombinant CD73 was obtained from R&D Systems, Cat. No. 5795-EN-010. […] Reactions were allowed to proceed for 30 minutes at room temperature before the addition of 100 μL Malachite Green (Cell Signaling Technology, Cat. No. 12776). After 5 minutes at room temperature, absorbance at 630 nm was determined on a microplate spectrophotometer. The concentration of inorganic phosphate was determined using a phosphate standard curve.

Chain of recombinant CD73 (P21589 27-547): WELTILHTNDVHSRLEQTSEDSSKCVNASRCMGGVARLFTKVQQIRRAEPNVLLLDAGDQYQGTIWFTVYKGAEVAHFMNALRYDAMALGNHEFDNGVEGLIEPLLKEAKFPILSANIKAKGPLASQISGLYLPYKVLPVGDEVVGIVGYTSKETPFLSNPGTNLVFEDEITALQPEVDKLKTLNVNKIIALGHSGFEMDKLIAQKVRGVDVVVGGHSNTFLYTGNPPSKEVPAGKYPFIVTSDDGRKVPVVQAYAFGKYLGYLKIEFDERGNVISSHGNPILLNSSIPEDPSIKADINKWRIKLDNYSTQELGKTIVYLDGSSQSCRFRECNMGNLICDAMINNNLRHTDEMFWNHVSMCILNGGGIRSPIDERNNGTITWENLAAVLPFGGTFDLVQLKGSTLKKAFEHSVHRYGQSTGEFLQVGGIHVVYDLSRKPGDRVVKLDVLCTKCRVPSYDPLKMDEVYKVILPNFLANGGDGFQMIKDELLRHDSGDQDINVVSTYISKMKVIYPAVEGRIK

SMILES	IC50
C#C[C@@]1(O)[C@@H](COC(Cc2cccc(C(F)(F)F)c2)(C(=O)O)C(=O)O)O[C@@H](n2cnc3c(N)nc(Cl)nc32)[C@@H]1O [Example 50, 2-(((2R,3S,4R,5R)-5-(6-amino-2-chloro-9H-purin-9-yl)-3-ethynyl-3,4-dihydroxytetrahydrofuran-2-yl)methoxy)-2-(3-(trifluoromethyl)benzyl)malonic acid]	3 nM
C[C@@]1(O)[C@@H](COP(=O)(O)CP(=O)(O)O)O[C@@H](n2cnc3c(NCc4ccccc4)nc(Cl)nc32)[C@@H]1O [Example 205, (((((2R,3S,4R,5R)-5-(6-(benzylamino)-2-chloro-9H-purin-9-yl)-3,4-dihydroxy-3-methyltetrahydrofuran-2-yl)methoxy)(hydroxy)phosphoryl)methyl)phosphonic acid]	12 nM
C#C[C@@]1(O)[C@@H](CO[C@@](Cc2ccccc2)(C(=O)O)c2cscn2)O[C@@H](n2cnc3c(NC)nc(Cl)nc32)[C@@H]1O [Example 188, (R)-2-(((2R,3S,4R,5R)-5-(2-chloro-6-(methylamino)-9H-purin-9-yl)-3-ethynyl-3,4-dihydroxytetrahydrofuran-2-yl)methoxy)-3-phenyl-2-(thiazol-4-yl)propanoic acid]	134 nM
C#C[C@@]1(O)[C@@H](CO[C@](Cc2ccccc2)(C(=O)O)c2cscn2)O[C@@H](n2cnc3c(NC)nc(Cl)nc32)[C@@H]1O [Example 187, (S)-2-(((2R,3S,4R,5R)-5-(2-chloro-6-(methylamino)-9H-purin-9-yl)-3-ethynyl-3,4-dihydroxytetrahydrofuran-2-yl)methoxy)-3-phenyl-2-(thiazol-4-yl)propanoic acid]	10 nM
C#C[C@@]1(O)[C@@H](COC(C(N)=O)C(=O)O)O[C@@H](n2cnc3c(NC4CCCC4)nc(Cl)nc32)[C@@H]1O (stereo partly drawn) [Example 115, 3-amino-2-(((2R,3S,4R,5R)-5-(2-chloro-6-(cyclopentylamino)-9H-purin-9-yl)-3-ethynyl-3,4-dihydroxytetrahydrofuran-2-yl)methoxy)-3-oxopropanoic acid]	135 nM
C#C[C@@]1(O)[C@@H](COC(C(=O)OC)P(=O)(O)O)O[C@@H](n2cnc3c(N)nc(Cl)nc32)[C@@H]1O (stereo partly drawn) [Example 123, (1-(((2R,3S,4R,5R)-5-(6-amino-2-chloro-9H-purin-9-yl)-3-ethynyl-3,4-dihydroxytetrahydrofuran-2-yl)methoxy)-2-methoxy-2-oxoethyl)phosphonic acid]	71 nM
C#C[C@@]1(O)[C@@H](COC(Cc2cccc(Cl)c2)(C(=O)O)C(=O)O)O[C@@H](n2cnc3c(N)nc(Cl)nc32)[C@@H]1O [Example 51, 2-(((2R,3S,4R,5R)-5-(6-amino-2-chloro-9H-purin-9-yl)-3-ethynyl-3,4-dihydroxytetrahydrofuran-2-yl)methoxy)-2-(3-chlorobenzyl)malonic acid]	3 nM
C#C[C@@]1(O)[C@@H](COC(C(=O)O)C(=O)N2CCCC2)O[C@@H](n2cnc3c(N)nc(Cl)nc32)[C@@H]1O (stereo partly drawn) [Example 113, 2-(((2R,3S,4R,5R)-5-(6-amino-2-chloro-9H-purin-9-yl)-3-ethynyl-3,4-dihydroxytetrahydrofuran-2-yl)methoxy)-3-oxo-3-(pyrrolidin-1-yl)propanoic acid]	331 nM
C#C[C@@]1(O)[C@@H](COC(C(=O)O)S(C)(=O)=O)O[C@@H](n2cnc3c(NC4CCCC4)nc(Cl)nc32)[C@@H]1O (stereo partly drawn) [Example 120, 2-(((2R,3S,4R,5R)-5-(2-chloro-6-(cyclopentylamino)-9H-purin-9-yl)-3-ethynyl-3,4-dihydroxytetrahydrofuran-2-yl)methoxy)-2-(methylsulfonyl)acetic acid]	4630 nM
C#C[C@@]1(O)[C@@H](COCP(=O)(O)O)O[C@@H](n2cnc3c(NCc4ccccc4)nc(Cl)nc32)[C@@H]1O [Example 204, ((((2R,3S,4R,5R)-5-(6-(benzylamino)-2-chloro-9H-purin-9-yl)-3-ethynyl-3,4-dihydroxytetrahydrofuran-2-yl)methoxy)methyl)phosphonic acid]	100 nM
C#C[C@@]1(O)[C@@H](COC(C(N)=O)C(N)=O)O[C@@H](n2cnc3c(NC4CCCC4)nc(Cl)nc32)[C@@H]1O [Example 116, 2-(((2R,3S,4R,5R)-5-(2-chloro-6-(cyclopentylamino)-9H-purin-9-yl)-3-ethynyl-3,4-dihydroxytetrahydrofuran-2-yl)methoxy)malonamide]	8050 nM
C#CCC(OC[C@H]1O[C@@H](n2cnc3c(N)nc(Cl)nc32)[C@H](O)[C@@]1(O)C#C)(C(=O)O)c1cscn1 (stereo partly drawn) [Example 184, 2-(((2R,3S,4R,5R)-5-(6-amino-2-chloro-9H-purin-9-yl)-3-ethynyl-3,4-dihydroxytetrahydrofuran-2-yl)methoxy)-2-(thiazol-4-yl)pent-4-ynoic acid]	102 nM
C#C[C@@]1(O)[C@@H](COP(=O)(O)CP(=O)(O)O)O[C@@H](n2cnc3c(N)nc(Cl)nc32)[C@@H]1O [Example 202, (((((2R,3S,4R,5R)-5-(6-amino-2-chloro-9H-purin-9-yl)-3-ethynyl-3,4-dihydroxytetrahydrofuran-2-yl)methoxy)(hydroxy)phosphoryl)methyl)phosphonic acid]	148 nM
C#C[C@@]1(O)[C@@H](COC(C(=O)O)c2csc(C(=O)O)n2)O[C@@H](n2cnc3c(N)nc(Cl)nc32)[C@@H]1O (stereo partly drawn) [Example 195, 4-((((2R,3S,4R,5R)-5-(6-amino-2-chloro-9H-purin-9-yl)-3-ethynyl-3,4-dihydroxytetrahydrofuran-2-yl)methoxy)(carboxy)methyl)thiazole-2-carboxylic acid]	236 nM
C#C[C@@]1(O)[C@@H](CO[C@](C#N)(Cc2ccccc2)C(=O)O)O[C@@H](n2cnc3c(N)nc(Cl)nc32)[C@@H]1O (single isomer, unassigned) [Example 189]	1850 nM
C[C@@]1(O)[C@@H](COC(Cc2ccc(-c3ccccc3C(=O)O)cc2)(C(=O)O)c2nnn[nH]2)O[C@@H](n2cnc3c(N)nc(Cl)nc32)[C@@H]1O (stereo partly drawn) [Example 201, 4′-(2-(((2R,3S,4R,5R)-5-(6-amino-2-chloro-9H-purin-9-yl)-3,4-dihydroxy-3-methyltetrahydrofuran-2-yl)methoxy)-2-carboxy-2-(1H-tetrazol-5-yl)ethyl)-[1,1′-biphenyl]-2-carboxylic acid]	204 nM
C#C[C@@]1(O)[C@@H](COC(Cc2ccccc2)(C(=O)O)C(=O)O)O[C@@H](n2cnc3c(NC(C)C)nc(Cl)nc32)[C@@H]1O [Example 93, 2-benzyl-2-(((2R,3S,4R,5R)-5-(2-chloro-6-(isopropylamino)-9H-purin-9-yl)-3-ethynyl-3,4-dihydroxytetrahydrofuran-2-yl)methoxy)malonic acid]	1.7 nM
C[C@@]1(O)[C@@H](COC(Cc2ccc(-c3ccccc3C(=O)O)cc2)(C(=O)O)c2cscn2)O[C@@H](n2cnc3c(N)nc(Cl)nc32)[C@@H]1O (stereo partly drawn) [Example 200, 4′-(2-(((2R,3S,4R,5R)-5-(6-amino-2-chloro-9H-purin-9-yl)-3,4-dihydroxy-3-methyltetrahydrofuran-2-yl)methoxy)-2-carboxy-2-(thiazol-4-yl)ethyl)-[1,1′-biphenyl]-2-carboxylic acid]	6090 nM
C#C[C@@]1(O)[C@@H](COC(Cc2ccccc2)(C(=O)O)C(=O)O)O[C@@H](n2cnc3c(NC4CCOCC4)nc(Cl)nc32)[C@@H]1O [Example 60, 2-benzyl-2-(((2R,3S,4R,5R)-5-(2-chloro-6-((tetrahydro-2H-pyran-4-yl)amino)-9H-purin-9-yl)-3-ethynyl-3,4-dihydroxytetrahydrofuran-2-yl)methoxy)malonic acid]	3 nM
Nc1nc(Cl)nc2c1ncn2[C@@H]1O[C@H](COC(C(=O)O)C(=O)O)[C@](O)(C#Cc2ccn(Cc3ccccc3)n2)[C@H]1O [Example 28, 2-(((2R,3S,4R,5R)-5-(6-amino-2-chloro-9H-purin-9-yl)-3-((1-benzyl-1H-pyrazol-3-yl)ethynyl)-3,4-dihydroxytetrahydrofuran-2-yl)methoxy)malonic acid]	3 nM
C#C[C@@]1(O)[C@@H](CO[C@@H](C(=O)O)c2csc(-c3ccccc3)n2)O[C@@H](n2cnc3c(N)nc(Cl)nc32)[C@@H]1O (single isomer, unassigned) [Example 194]	336 nM
C#C[C@@]1(O)[C@@H](COC(Cc2cccc(OC)c2)(C(=O)O)C(=O)O)O[C@@H](n2cnc3c(N)nc(Cl)nc32)[C@@H]1O [Example 52, 2-(((2R,3S,4R,5R)-5-(6-amino-2-chloro-9H-purin-9-yl)-3-ethynyl-3,4-dihydroxytetrahydrofuran-2-yl)methoxy)-2-(3-methoxybenzyl)malonic acid]	4 nM
C#C[C@@]1(O)[C@@H](CO[C@@](C#N)(Cc2ccccc2)C(=O)O)O[C@@H](n2cnc3c(N)nc(Cl)nc32)[C@@H]1O (single isomer, unassigned) [Example 190]	9320 nM
